ChEMBL document CHEMBL1134810, “G-quadruplex DNA binding by a series of carbocyanine dyes” (Bioorg Med Chem Lett, 2001)

Legend:
[1] = biological target: DNA polymerase I, thermostable (Thermus aquaticus) (UniProt P19821); test: G4'-DNA binding-dependent Taq polymerase pausing is the ratio of pause/full bands at 20 uM carbocyanine concentration relative to control; expressed as Normalized ratio of G4'-DNA stop product
[2] = biological target: DNA polymerase I, thermostable (Thermus aquaticus) (UniProt P19821); test: Taq polymerase inhibition at […] concentration; settings: 20 uM
[3] = biological target: Telomerase reverse transcriptase (Homo sapiens) (UniProt O14746); test: Inhibition of human telomerase activity in S100 HeLa cell extract at […] carbocyanine concentration.; assay type: cell-free
Chain of Telomerase reverse transcriptase (Homo sapiens) (O14746 whole entry): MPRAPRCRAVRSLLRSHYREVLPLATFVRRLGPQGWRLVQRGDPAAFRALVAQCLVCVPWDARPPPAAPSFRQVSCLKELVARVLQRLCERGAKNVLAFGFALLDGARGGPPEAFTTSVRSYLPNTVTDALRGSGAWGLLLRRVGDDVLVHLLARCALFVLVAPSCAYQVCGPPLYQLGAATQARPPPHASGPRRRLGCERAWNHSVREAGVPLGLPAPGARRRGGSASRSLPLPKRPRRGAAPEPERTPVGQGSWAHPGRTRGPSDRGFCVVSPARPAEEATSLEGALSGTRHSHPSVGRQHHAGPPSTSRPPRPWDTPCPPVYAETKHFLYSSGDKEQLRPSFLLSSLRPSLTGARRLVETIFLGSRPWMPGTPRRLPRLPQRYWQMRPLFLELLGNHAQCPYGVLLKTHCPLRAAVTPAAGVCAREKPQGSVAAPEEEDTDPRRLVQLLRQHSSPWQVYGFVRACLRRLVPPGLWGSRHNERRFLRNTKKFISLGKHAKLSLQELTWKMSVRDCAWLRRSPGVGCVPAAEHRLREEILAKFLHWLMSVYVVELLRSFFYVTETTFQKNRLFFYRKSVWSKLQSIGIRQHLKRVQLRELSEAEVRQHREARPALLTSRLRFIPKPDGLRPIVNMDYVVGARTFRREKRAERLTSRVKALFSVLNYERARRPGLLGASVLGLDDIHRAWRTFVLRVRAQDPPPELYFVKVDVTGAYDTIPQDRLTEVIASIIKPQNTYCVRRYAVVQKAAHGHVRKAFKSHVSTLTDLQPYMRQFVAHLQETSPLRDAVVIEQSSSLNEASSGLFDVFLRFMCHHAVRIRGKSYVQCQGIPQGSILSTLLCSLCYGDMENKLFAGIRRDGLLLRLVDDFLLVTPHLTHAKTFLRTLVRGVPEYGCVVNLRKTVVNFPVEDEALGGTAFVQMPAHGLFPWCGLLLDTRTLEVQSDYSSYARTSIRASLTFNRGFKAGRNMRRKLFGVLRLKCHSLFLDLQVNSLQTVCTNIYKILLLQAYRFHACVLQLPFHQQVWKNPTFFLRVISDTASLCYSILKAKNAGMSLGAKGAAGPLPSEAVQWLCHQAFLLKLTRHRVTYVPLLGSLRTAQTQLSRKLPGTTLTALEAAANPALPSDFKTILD

Chain of DNA polymerase I, thermostable (Thermus aquaticus) (P19821 whole entry): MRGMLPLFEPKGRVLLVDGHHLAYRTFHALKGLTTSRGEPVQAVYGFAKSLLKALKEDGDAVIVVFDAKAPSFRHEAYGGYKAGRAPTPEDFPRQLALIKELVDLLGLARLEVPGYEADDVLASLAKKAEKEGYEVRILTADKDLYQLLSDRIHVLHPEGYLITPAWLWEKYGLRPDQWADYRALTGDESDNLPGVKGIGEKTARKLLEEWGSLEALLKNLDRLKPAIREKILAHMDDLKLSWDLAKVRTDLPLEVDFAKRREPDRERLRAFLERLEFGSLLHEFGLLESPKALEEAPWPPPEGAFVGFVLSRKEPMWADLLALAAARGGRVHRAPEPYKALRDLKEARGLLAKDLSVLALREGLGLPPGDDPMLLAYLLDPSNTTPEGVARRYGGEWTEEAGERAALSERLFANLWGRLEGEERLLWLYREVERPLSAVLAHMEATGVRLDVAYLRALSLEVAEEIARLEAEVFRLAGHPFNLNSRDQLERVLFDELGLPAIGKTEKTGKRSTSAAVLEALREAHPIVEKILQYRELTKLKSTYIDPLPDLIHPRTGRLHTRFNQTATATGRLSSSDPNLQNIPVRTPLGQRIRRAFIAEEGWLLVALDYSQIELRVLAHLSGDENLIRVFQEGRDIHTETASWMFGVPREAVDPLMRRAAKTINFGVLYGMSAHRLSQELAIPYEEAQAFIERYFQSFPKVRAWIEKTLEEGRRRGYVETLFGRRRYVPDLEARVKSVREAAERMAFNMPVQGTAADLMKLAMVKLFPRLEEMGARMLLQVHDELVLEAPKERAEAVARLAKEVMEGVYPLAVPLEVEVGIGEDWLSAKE

| Activity [1] | inhibition [2] [%] | inhibition [3] [%] | Compound |
| --- | --- | --- | --- |
|  | 91 | < 10 | CCN1C(=CC=CC=Cc2sc3ccccc3[n+]2CC)Sc2ccccc21 |
| 1.1 | 1.1 | < 10 | CCN1/C(=C/C=C/C=C/C=C/c2sc3ccccc3[n+]2CC)Sc2ccccc21 |
| 4.4 | 14 | 35 | CCN1/C(=C/C=C/c2sc3ccccc3[n+]2CC)Sc2ccccc21 |

Continued, compound first:

| Compound | Activity [1] | inhibition [2] [%] | inhibition [3] [%] |
| --- | --- | --- | --- |
| CCN1/C(=C/C=C/C=C/c2oc3ccccc3[n+]2CC)Oc2ccccc21 | 1.6 | 27 | < 10 |
| CCN1/C(=C/C=C/c2oc3ccccc3[n+]2CC)Oc2ccccc21 | 0.9 | 15 | < 10 |
